This is an account of results in patent publication US20180220650A1, “PLANT GROWTH REGULATOR COMPOUNDS” (Syngenta Participations AG, priority 2015, published 2018).

Where two headings read alike, the source gives them in different places.

One series relates to NK Falkone corn seeds. Kind of series: Corn seed germination under cold stress. It is filed as in vivo. The following applies: 15° C. Here is the method:
The effect of compounds of Formula (I) on the germination of NK Falkone corn seeds under cold stress was evaluated as follows.
NK Falkone corn seeds were sorted by size using 2 sieves, one excluding very big seeds and the other with round holes of 8 to 9 mm diameter. The seeds retained by the latter sieve were used for the germination test.
The corn seeds were placed in 24 well plates (each plate was considered as one experimental unit or replicate). Germination was initiated by the addition of 250 μl of distilled water containing 0.5% DMSO per well as a mean for compound solubilization. 8 replicates (ie, 8 plates) were used for each treatment characterization. Plates were sealed using seal foil (Polyolefin Art. Nr. 900320) from HJ-BIOANALYTIK. All plates were placed horizontally on trolleys in a climatic chamber at 15° C. or 23° C. in complete darkness. The experiment was laid out in a completely randomized design in climatic chamber with 75% Relative Humidity. Foils were pierced, one hole per well using a syringe after 72 hours for experiments performed at 15° C. and after 24 hours for experiments performed at 23° C.
Germination was followed over time by taking photographs at different time points. Image analysis was performed automatically with a macro which was developed using the Image J software. A dynamic analysis of germination was carried out by fitting a logistic curve. Three parameters were calculated from the logistic curve: the T50; the slope and the plateau. All three parameters have a high agronomical relevance and are key requirements to ensure a good early crop-establishment. The T50, slope and plateau for a selection of compounds are outlined in Table 2 below. All the values are expressed as percentages compared to an untreated control. All the three parameters are calculated considering 8 replicates and the kinetic parameters are separately determined for each germination curve. Data in bold indicate germination enhancing statistically significant differences between treated seeds and untreated control (p<0.05). • T50 corresponds to the time needed for half of the seed population to germinate. Higher negative %-values indicate faster germination. • Slope indicates how synchronous the germination of the seed population is. Positive values indicate steeper curve. The steeper the curve, the better and more uniform the germination is. • Plateau provides information about the final germination rate and it is expressed in percentage.
Positive values indicate a larger number of seeds germinated in a given period.

A short description of series [1]: Soil stability assay (Stein clay loam soil). The format is physicochemical. As to conditions: for Soil Stability (t1/2, hours): Stein soil:sand 1:1, 0.3 μg per gram of soil, dark, 20° C. From the text:
It is highly desirable that agrochemicals applied to soil in order to deliver a beneficial biological effect can exist in the soil for a prolonged period of time with minimal degradation. However, a biologically active agrochemical compound may undergo chemical transformation in soil, leading to decreased levels of activity and a decrease in a desired biological effect. Simple laboratory degradation studies can be used to evaluate the disappearance due to biotic and abiotic processes of a compound in soil. The time taken for a compound to degrade in soil allows the estimation of their half-life (t1/2), which corresponds to the time in which 50% of the compound under evaluation is degraded in soil. […] Stock standard solutions were prepared by dissolving 1 mg of each test compound (ie, compounds (Ib-1, Ib-19 and AB01) in acetonitrile. The stock standard solutions were stored at 6° C. Working standard solutions were then obtained by a series of dilutions of the stock standard solutions for an external calibration. A treatment solution of 100 μg/mL concentration for each test compound was prepared in acetonitrile:water (6:4)(v:v). Soil samples used for this soil stability assay were collected at the Syngenta Research Centre location in Stein (Switzerland). The soil was classified as clay loam soil. Certain physical properties of the soil are described in Table 4. 2 mm sieved Stein soil was mixed with sand at ratio 1:1 prior to starting the laboratory soil degradation experiment. 10 g of the sand-soil mix (air-dried basis) was weighed into 50 ml Corning® polypropylene centrifuge tubes and soil moisture was adjusted at 45% of the field capacity. Chemical application was performed by applying 30 μl of a 100 μg/mL solution of each test compound to 10 g soil vessel corresponding to a final concentration of 0.3 μg test compound per gram of soil. Three replicates were considered for each test compound. Treated tubes were incubated in the dark at 20° C.±0.5 with 85% relative humidity. For the estimation of half-life, different sampling times of 0, 4, 8, 24, 72, 168 and 336 hours were considered. […] The half-lives were calculated by an exponential regression analysis (single first order kinetic model) plotting the percentage of recovered compound in soil against the time. […] After centrifugation at 3500 rpm for 5 minutes, an aliquot of the supernatant was collected and analyzed via UPLC-MS (Waters Acquity UPLC-MS PDA-Detection: 254 nm- and SQD-Zspray ESI, APCI, ESCi®-; Waters Acquity UPLC Column HSS T3 2.1×30 mm-1.8 μm; Gradient mobile phase with H2O:MeOH (9:1, v:v)+0.1% HCOOH (solvent A) and MeCN+0.1% HCOOH (solvent B); 30% to 100% of solvent B in 1 min, then 100% of solvent B for 0.45 min and then down to 30% solvent B at 1.5 min.; flow rate 0.75 mL·min−1).

A short description of series [2]: Hydrolytic stability assay. It is filed as physicochemical. As to conditions: for half-life: aqueous buffer with acetonitrile co-solvent, 40° C., read-out: Hydrolytic Stability (t1/2, hours) (converted); for loss of test compound (definitive half-life could not be determined): pH7. Here is the method: The objective of the hydrolytic stability assay was to determine the chemical stability of the individual test compounds in a strictly controlled and reproducible environment allowing a comparison of their in-vitro stability under aqueous conditions at pH7 and 9. Due to low solubility of these analogues, a percentage of acentonitrile is added to the system to aid solubility (nominally 10-50%). Prior to conducting the individual assays, 1000 ppm stock solutions of all four test compounds were prepared in methanol. The reagents used in the assays were prepared as follows: 20 mM buffer solution: A stock of 20 mM mixed acetate, borate and phosphate buffer was prepared and the pH adjusted to 7 or 9 as required. Test solutions were prepared in LC vials for each test compound in the following manner: Mobile Phase Control: Mobile phase (1 ml)+compound (0.5-40 μl); Hydrolytic Stability: Buffer (1 ml)+compound (0.5-40 μl). The mobile phase and buffer were dispensed into separate glass LC vials, placed into a thermostatted autosampler set at 40° C., and allowed to equilibrate for 30 minutes prior to starting the individual assays. Reactions were initiated by addition of compound and monitored through a series of repeat injections made directly from the vial into an HPLC system at regular time intervals. Initial and subsequent measurements of peak area attributable to the test compound were used to fit exponential half-lives and calculate first-order rate constants. […] Consequently, the percent remaining was recorded at the last assessment time.

With `CC1=C[C@H](O/C=C2/C(=O)O[C@@H]3c4ccccc4C[C@H]23)OC1=O` [GR-24], the “Plateau (% vs control)” value in the series on NK Falkone corn seeds (rate 0.08 μM, final germination rate) is 2.10 % vs control; in the series with NK Falkone corn seeds (rate 0.4 μM), 0.90 % vs control; in the series on NK Falkone corn seeds (rate 2 μM), −1.40 % vs control; in the series with NK Falkone corn seeds (rate 10 μM), 1.50 % vs control. Moreover, the “Slope (% vs control)” value is −8.50 % vs control in the series with NK Falkone corn seeds (rate 0.08 μM, synchrony of germination); 0.20 % vs control with NK Falkone corn seeds (rate 0.4 μM); −0.80 % vs control in the series with NK Falkone corn seeds (rate 2 μM); 7.40 % vs control with NK Falkone corn seeds (rate 10 μM). Besides, the “T50 (% vs control)” value is listed as −0.10 % vs control in the series on NK Falkone corn seeds (rate 0.08 μM, time for half of seeds to germinate); −1.80 % vs control in the series with NK Falkone corn seeds (rate 0.4 μM); −0.50 % vs control in the series with NK Falkone corn seeds (rate 2 μM); −2.40 % vs control in the series with NK Falkone corn seeds (rate 10 μM).
For the molecule `CC1=C(C)C(O/C=C2/C(=O)O[C@]3(C)CC[C@H]4C(C)(C)CCC[C@]4(C)[C@@H]23)OC1=O` (stereo partly shown) [Ib-19], the “Plateau (% vs control)” value in the series on NK Falkone corn seeds (rate 0.04 μM) is recorded as 7.10 % vs control; in the series with NK Falkone corn seeds (rate 0.2 μM) it was −4.60 % vs control; in the series on NK Falkone corn seeds (rate 1 μM), 3.00 % vs control; in the series with NK Falkone corn seeds (rate 5 μM), 8.30 % vs control. For the same molecule, the “Slope (% vs control)” value is reported as 13.60 % vs control in the series with NK Falkone corn seeds (rate 0.04 μM), 11.40 % vs control with NK Falkone corn seeds (rate 0.2 μM), 7.60 % vs control in the series on NK Falkone corn seeds (rate 1 μM) and 24.20 % vs control with NK Falkone corn seeds (rate 5 μM). Further, the “T50 (% vs control)” value in the series on NK Falkone corn seeds (rate 0.04 μM) is −1.10 % vs control; with NK Falkone corn seeds (rate 0.2 μM), −3.20 % vs control; in the series with NK Falkone corn seeds (rate 1 μM) it was 0.20 % vs control; in the series with NK Falkone corn seeds (rate 5 μM), −2.80 % vs control. Also, in series [1] (Stein soil), the “soil stability compared to prior art compound AB01” value is listed as “superior soil stability”. The “Soil Stability (t1/2, hours)” value in series [1] was 280 h. The results for the half-life in series [2] (pH 7 + 25% MeCN) and in series [2] (pH 9 + 25% MeCN) were > 17.6 h and 19.4 h, respectively. For the same molecule, the “loss of test compound (definitive half-life could not be determined)” value in series [2] is on record as “insufficient loss was observed”. Moreover, the “hydrolytic stability compared to the prior art compound” value in series [2] (pH9) is given as “superior hydrolytic stability”.
Consider `CC1=C(C)C(O/C=C2/C(=O)O[C@]3(C)CC[C@H]4C(C)(C)CCC[C@]4(C)[C@@H]23)N(c2ccccc2)C1=O` (stereo partly shown) [Ib-1], for which the “Soil Stability (t1/2, hours)” value in series [1] is >720 h. For the same molecule, the half-life is > 18.1 h in series [2] (pH 7 + 25% MeCN) and > 17.8 h in series [2] (pH 9 + 25% MeCN).
With `CC1=CC(O/C=C2/C(=O)O[C@]3(C)CC[C@H]4C(C)(C)CCC[C@]4(C)[C@@H]23)OC1=O` (stereo partly shown) [AB01], the “Plateau (% vs control)” value with NK Falkone corn seeds (rate 0.04 μM) is −2.20 % vs control; with NK Falkone corn seeds (rate 0.2 μM) it was −2.20 % vs control; with NK Falkone corn seeds (rate 1 μM), 3.00 % vs control; in the series with NK Falkone corn seeds (rate 5 μM) it was 1.30 % vs control. Also, the “Slope (% vs control)” value in the series with NK Falkone corn seeds (rate 0.04 μM) is 6.50 % vs control; in the series on NK Falkone corn seeds (rate 0.2 μM) it was 10.00 % vs control; with NK Falkone corn seeds (rate 1 μM), 27.50 % vs control; with NK Falkone corn seeds (rate 5 μM), 16.50 % vs control. Further, the “T50 (% vs control)” value in the series with NK Falkone corn seeds (rate 0.04 μM) is on record as −1.80 % vs control; with NK Falkone corn seeds (rate 0.2 μM), 0.50 % vs control; in the series on NK Falkone corn seeds (rate 1 μM), −2.30 % vs control; with NK Falkone corn seeds (rate 5 μM), −1.90 % vs control. Further, the “Soil Stability (t1/2, hours)” value in series [1] turned out to be 38 h. Besides, the half-life in series [2] (pH 7 + 25% MeCN) is > 17.6 h; in series [2] (pH 9 + 25% MeCN), 3 h. In addition, the “loss of test compound (definitive half-life could not be determined)” value in series [2] is listed as “insufficient loss was observed”.
